What was measured:
hIL-17A = target: T1, hIL-17A (Homo sapiens, UniProt Q16552); experiment: Inhibition of hIL-17A-induced chemokine GROα/CXCL1 production in HT-29 cell; type: cell-based
T1 construct: purchased R&D 317-ILB
T1 sequence (Q16552 20-155 limits assumed): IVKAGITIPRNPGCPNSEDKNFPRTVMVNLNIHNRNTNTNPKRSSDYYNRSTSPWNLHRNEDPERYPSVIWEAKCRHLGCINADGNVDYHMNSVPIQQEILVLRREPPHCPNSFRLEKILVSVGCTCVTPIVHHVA
Experimental: Human colorectal adenocarcinoma cell HT-29 was inoculated to a 96-well plate (5×10^4 for per well), and incubated at 37° C. on an incubator overnight. A mixture of 30 ng/mL hIL-17A protein (R&D, #317-ILB) with gradient concentrations of IL-17A small molecule inhibitors or with 0.3 μg/mL positive control IL-17A antibody (R&D, #AF-317-NA) was incubated for 1 h at 37° C., and added into the 96-well plate to incubated with HT-29 at 37° C. for 48 h. A level of GROα in a cell culture supernatant was then detected using an ELISA kit for GROα (Cisbio, #62HCXC1peg).
Inhibitory effect of the compound prepared in Examples on hIL-17A-induced chemokine GROα/CXCL1 production in HT-29 cell was tested according to the methods of Experimental Examples 1 and 2. […] “-” indicated not tested. According to the results, the compounds provided herein have good human IL-17A inhibitory activity and can be effectively used in the treatment of diseases associated with abnormal hIL-17A activity.

human IL-17A (hIL-17A) = target: T2, human IL-17A (hIL-17A) (Homo sapiens, UniProt Q16552); experiment: IL-17A enzyme-linked immunosorbent assay (competitive ELISA, receptor-ligand binding)
T2 construct: purchased Sino Biological Inc. 12047-H07B
T2 sequence (Q16552 24-155): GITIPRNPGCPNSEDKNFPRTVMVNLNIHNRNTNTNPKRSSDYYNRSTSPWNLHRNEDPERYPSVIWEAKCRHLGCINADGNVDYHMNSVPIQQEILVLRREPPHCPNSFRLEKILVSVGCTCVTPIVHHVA
Experimental: The inhibition of receptor-ligand binding by human IL-17A (hIL-17A) inhibitors was detected by competitive ELISA. A 96-well plate was inoculated 0.2 μg/ml IL-17 (Sino Biological Inc. Cat #12047-H07B) for incubation at 37° C. for 30 min, 100 μL for per well. The 96-well plate was washed four times with phosphate buffered saline (PBS) containing Tween-20 (PBST, 0.05% Tween-20), 200 μL for per well each time. 200 μL of 5% skim milk were added into the 96-well plate for incubation on a shaker at 25° C. for 30 min. The 96-well plate was washed four times with PBST (0.05% Tween-20), and added with 89 μL of PBST and 1 μL of a compound to be measured (100×), in which a concentration the compound to be measured (100×) was 0.003 μM-30 μM. The mixture was mixed evenly and incubated at 25° C. for 10 min. The mixture was added with 10 μL of 16 nM IL-17R, followed by incubation at 25° C. for 30 min. After washing the 96-well plate 4 times, 100 μL of anti-Fc tag horseradish peroxidase (HRP) coupled antibody were added for incubation on a shaker at 25° C. for 30 min. After washing the 96-well plate 4 times, 100 μL of 3,3′,5,5′-tetramethylbenzidine (TMB) substrate solution were added to the 96-well plate for incubation away from light at 25° C. After addition of 20% HCl, an absorbance was measure by a microplate reader at 450 nm.
The compounds prepared according to the above method were assayed for human IL-17A inhibitory activity.

Cc1n[nH]c(C)c1-c1ccc(NC(=O)[C@@H](NC(=O)c2nonc2C(C)C)C2c3cc(F)c(F)cc3OCC23CC3)cn1 (stereo partly shown) [Compound 44]
IC50 (hIL-17A): 336 nM
IC50 (human IL-17A (hIL-17A)): 122 nM

Cc1n[nH]c(C)c1-c1ccc(NC(=O)[C@@H](NC(=O)c2nonc2C(C)C)C2c3cc(F)c(F)cc3OCC23CC3)cc1 (stereo partly shown) [Compound 45]
IC50 (hIL-17A): 50 nM
IC50 (human IL-17A (hIL-17A)): 125 nM

Cc1n[nH]c(C)c1-c1ncc(NC(=O)[C@@H](NC(=O)c2nonc2C(C)C)C2c3cc(F)c(F)cc3OCC23CC3)cc1F (stereo partly shown) [Compound 46]
IC50 (hIL-17A): 122 nM
IC50 (human IL-17A (hIL-17A)): 95 nM

Cc1n[nH]c(C)c1-c1ccc(NC(=O)[C@@H](NC(=O)c2ccnn2C(C)C)C2c3cc(F)c(F)cc3OCC23CC3)cc1 (stereo partly shown) [Compound 48]
IC50 (hIL-17A): 184 nM
IC50 (human IL-17A (hIL-17A)): 135 nM

Cc1n[nH]c(C)c1-c1ccc(NC(=O)[C@@H](NC(=O)c2ccnn2C(C)C)C2c3ccc(F)c(F)c3OCC23CC3)cn1 (stereo partly shown) [Compound 50]
IC50 (hIL-17A): 569 nM
IC50 (human IL-17A (hIL-17A)): 81 nM

Cc1n[nH]c(C)c1-c1ncc(NC(=O)[C@@H](NC(=O)c2ccnn2C(C)C)C2c3ccc(F)c(F)c3OCC23CC3)cc1F (stereo partly shown) [Compound 51]
IC50 (hIL-17A): 313 nM
IC50 (human IL-17A (hIL-17A)): 155 nM

Cc1n[nH]c(C)c1-c1ccc(NC(=O)[C@@H](NC(=O)C2(F)CC2)C2c3cc(F)c(F)cc3OCC23CC3)cc1 (stereo partly shown) [Compound 55]
IC50 (hIL-17A): 228 nM
IC50 (human IL-17A (hIL-17A)): 65 nM

Cc1n[nH]c(C)c1-c1ccc(NC(=O)[C@@H](NC(=O)c2ccnn2C(C)C)C2c3ccc(F)c(F)c3OCC23CC3)cc1 (stereo partly shown) [Compound 56]
IC50 (hIL-17A): 355 nM
IC50 (human IL-17A (hIL-17A)): 139 nM

Cc1nonc1C(=O)N[C@H](C(=O)Nc1ccc(-c2c(C)n[nH]c2C)cc1)C1c2ccc(F)c(F)c2OCC12CC2 (stereo partly shown) [Compound 57]
IC50 (hIL-17A): 346 nM
IC50 (human IL-17A (hIL-17A)): 112 nM

Cc1n[nH]c(C)c1-c1ccc(NC(=O)[C@@H](NC(=O)c2ccnn2C(C)C)C2c3c(F)cc(F)cc3OCC23CC3)cn1 (stereo partly shown) [Compound 59]
IC50 (hIL-17A): 1480 nM
IC50 (human IL-17A (hIL-17A)): 222 nM

Cc1n[nH]c(C)c1-c1ncc(NC(=O)[C@@H](NC(=O)c2ccnn2C(C)C)C2c3c(F)cc(F)cc3OCC23CC3)cc1F (stereo partly shown) [Compound 60]
IC50 (hIL-17A): 279 nM
IC50 (human IL-17A (hIL-17A)): 193 nM

Cc1n[nH]c(C)c1-c1ccc(NC(=O)[C@@H](NC(=O)c2ccnn2C(C)C)C2c3cc(F)c(F)cc3OCC23CC3)cn1 (stereo partly shown) [Compound 62]
IC50 (hIL-17A): 177 nM
IC50 (human IL-17A (hIL-17A)): 151 nM

Cc1n[nH]c(C)c1-c1ccc(NC(=O)[C@@H](NC(=O)c2nonc2C(C)C)C2c3ccc(F)c(F)c3OCC23CC3)cn1 (stereo partly shown) [Compound 63]
IC50 (hIL-17A): 605 nM
IC50 (human IL-17A (hIL-17A)): 156 nM

Cc1n[nH]c(C)c1-c1ncc(NC(=O)[C@@H](NC(=O)c2nonc2C(C)C)C2c3ccc(F)c(F)c3OCC23CC3)cc1F (stereo partly shown) [Compound 64]
IC50 (hIL-17A): 335 nM
IC50 (human IL-17A (hIL-17A)): 154 nM

Cc1n[nH]c(C)c1-c1ccc(NC(=O)[C@@H](NC(=O)c2nonc2C(C)C)C2c3ccc(F)c(F)c3OCC23CC3)cc1 (stereo partly shown) [Compound 65]
IC50 (hIL-17A): 212 nM
IC50 (human IL-17A (hIL-17A)): 222 nM

Cc1n[nH]c(C)c1-c1ccc(NC(=O)[C@@H](NC(=O)c2nonc2C2CC2)C2c3c(F)cc(F)cc3OCC23CC3)cc1 (stereo partly shown) [Compound 67]
IC50 (hIL-17A): 557 nM
IC50 (human IL-17A (hIL-17A)): 577 nM

Cc1n[nH]c(C)c1-c1ncc(NC(=O)[C@@H](NC(=O)c2nonc2C(C)C)C2c3cc(F)cc(F)c3OCC23CC3)cc1F (stereo partly shown) [Compound 68]
IC50 (hIL-17A): 1940 nM
IC50 (human IL-17A (hIL-17A)): 503 nM

Cc1nonc1C(=O)N[C@H](C(=O)Nc1ccc(-c2c(C)n[nH]c2C)cc1)C1c2cc(F)cc(F)c2OCC12CC2 (stereo partly shown) [Compound 69]
IC50 (hIL-17A): 941 nM
IC50 (human IL-17A (hIL-17A)): 288 nM

Cc1n[nH]c(C)c1-c1ccc(NC(=O)[C@@H](NC(=O)c2ccnn2C(C)C)C2c3cc(F)cc(F)c3OCC23CC3)cc1 (stereo partly shown) [Compound 70]
IC50 (hIL-17A): 112 nM
IC50 (human IL-17A (hIL-17A)): 201 nM

Cc1n[nH]c(C)c1-c1ncc(NC(=O)[C@@H](NC(=O)c2ccnn2C(C)C)C2c3cc(F)cc(F)c3OCC23CC3)cc1F (stereo partly shown) [Compound 72]
IC50 (hIL-17A): 1810 nM
IC50 (human IL-17A (hIL-17A)): 343 nM

Cc1n[nH]c(C)c1-c1ccc(NC(=O)[C@@H](NC(=O)c2nonc2C(C)C)C2c3cc(F)cc(F)c3OCC23CC3)cn1 (stereo partly shown) [Compound 73]
IC50 (hIL-17A): 795 nM
IC50 (human IL-17A (hIL-17A)): 294 nM

Cc1n[nH]c(C)c1-c1ccc(NC(=O)[C@@H](NC(=O)c2nonc2C(C)C)C2c3cc(F)cc(F)c3OCC23CC3)cc1 (stereo partly shown) [Compound 74]
IC50 (hIL-17A): 609 nM
IC50 (human IL-17A (hIL-17A)): 413 nM

Cc1n[nH]c(C)c1-c1ccc(NC(=O)[C@@H](NC(=O)c2ccnn2C(C)C)C2c3c(F)ccc(F)c3OCC23CC3)cc1 (stereo partly shown) [Compound 76]
IC50 (hIL-17A): 1050 nM
IC50 (human IL-17A (hIL-17A)): 270 nM

CCc1nonc1C(=O)N[C@H](C(=O)Nc1ccc(-c2c(C)n[nH]c2C)cc1)C1c2cc(F)cc(F)c2OCC12CC2 (stereo partly shown) [Compound 77]
IC50 (hIL-17A): 1010 nM
IC50 (human IL-17A (hIL-17A)): 320 nM

Cc1n[nH]c(C)c1-c1ccc(NC(=O)[C@@H](NC(=O)c2nonc2C2CC2)C2c3cc(F)cc(F)c3OCC23CC3)cc1 (stereo partly shown) [Compound 80]
IC50 (hIL-17A): 762 nM
IC50 (human IL-17A (hIL-17A)): 406 nM

COCc1[nH]nc(C)c1-c1ccc(NC(=O)[C@@H](NC(=O)c2nonc2C)C2c3ccc(F)c(F)c3OCC23CC3)cc1 (stereo partly shown) [Compound 85]
IC50 (hIL-17A): 1220 nM
IC50 (human IL-17A (hIL-17A)): 133 nM

Cc1n[nH]c(C)c1-c1ncc(NC(=O)[C@@H](NC(=O)c2nonc2C2CC2)C2c3ccc(F)c(F)c3OCC23CC3)cc1F (stereo partly shown) [Compound 86]
IC50 (hIL-17A): 718 nM
IC50 (human IL-17A (hIL-17A)): 179 nM

Cc1n[nH]c(C)c1-c1ccc(NC(=O)[C@@H](NC(=O)c2nonc2C2CC2)C2c3ccc(F)c(F)c3OCC23CC3)cc1 (stereo partly shown) [Compound 87]
IC50 (hIL-17A): 332 nM
IC50 (human IL-17A (hIL-17A)): 165 nM

Cc1n[nH]c(C)c1-c1ncc(NC(=O)[C@@H](NC(=O)c2ccnn2C(C)C)C2c3ccc(F)cc3OCC23CC3)cc1F (stereo partly shown) [Compound 90]
IC50 (hIL-17A): 188 nM
IC50 (human IL-17A (hIL-17A)): 144 nM

Cc1n[nH]c(C)c1-c1ncc(NC(=O)[C@@H](NC(=O)c2nonc2C2CC2)C2c3ccc(F)cc3OCC23CC3)cc1F (stereo partly shown) [Compound 91]
IC50 (hIL-17A): 1080 nM
IC50 (human IL-17A (hIL-17A)): 67 nM

Cc1n[nH]c(C)c1-c1ncc(NC(=O)[C@@H](NC(=O)c2nonc2C2CC2)C2c3cc(F)c(F)cc3OCC23CC3)cc1F (stereo partly shown) [Compound 92]
IC50 (hIL-17A): 9650 nM
IC50 (human IL-17A (hIL-17A)): 187 nM

Cc1n[nH]c(C)c1-c1ccc(NC(=O)[C@@H](NC(=O)c2nonc2C2CC2)C2c3ccc(F)cc3OCC23CC3)cc1 (stereo partly shown) [Compound 94]
IC50 (hIL-17A): 695 nM
IC50 (human IL-17A (hIL-17A)): 572 nM

Cc1n[nH]c(C)c1-c1ccc(NC(=O)[C@@H](NC(=O)c2nonc2C2CC2)C2c3ccc(F)cc3OCC23CC3)cn1 (stereo partly shown) [Compound 95]
IC50 (hIL-17A): 457 nM
IC50 (human IL-17A (hIL-17A)): 94 nM

Cc1n[nH]c(C)c1-c1ncc(NC(=O)[C@@H](NC(=O)c2conc2C2CC2)C2c3cc(F)c(F)cc3OCC23CC3)cc1F (stereo partly shown) [Compound 96]
IC50 (hIL-17A): 134 nM
IC50 (human IL-17A (hIL-17A)): 125 nM

Cc1n[nH]c(C)c1-c1ccc(NC(=O)[C@@H](NC(=O)c2conc2C2CC2)C2c3cc(F)c(F)cc3OCC23CC3)cn1 (stereo partly shown) [Compound 97]
IC50 (hIL-17A): 221 nM
IC50 (human IL-17A (hIL-17A)): 165 nM

Cc1n[nH]c(C)c1-c1ccc(NC(=O)[C@@H](NC(=O)c2conc2C2CC2)C2c3ccc(F)cc3OCC23CC3)cn1 (stereo partly shown) [Compound 99]
IC50 (hIL-17A): 213 nM
IC50 (human IL-17A (hIL-17A)): 96 nM

Cc1n[nH]c(C)c1-c1ncc(NC(=O)[C@@H](NC(=O)c2conc2C2CC2)C2c3ccc(F)cc3OCC23CC3)cc1F (stereo partly shown) [Compound 100]
IC50 (hIL-17A): 563 nM
IC50 (human IL-17A (hIL-17A)): 189 nM

Cc1n[nH]c(C)c1-c1ccc(NC(=O)[C@@H](NC(=O)OC2CC2)C2c3cc(F)c(F)cc3OCC23CC3)cn1 (stereo partly shown) [Compound 105]
IC50 (hIL-17A): 943 nM
IC50 (human IL-17A (hIL-17A)): 81 nM

— US20230227437A1, “IMMUNOMODULATOR” (priority 2020, published 2023)
